Data set [1] deals with NAMEC8. Description: Expression of EMT and lineage markers (qRT-PCR, immunoblot, immunofluorescence) in NAMEC8. The data set is classed as cell-based, human. On the procedure: (§1) Cells were rinsed twice in ice-cold PBS. Total RNA was extracted using Trizol (Invitrogen) and column-purified with RNeasy kits (Qiagen). cDNA synthesis was performed with 500 ng of total RNA at 37° C. for 2 h using the SuperScript III First-Strand Synthesis System (Thermo Fisher Scientific), and subsequently diluted 5-fold. mRNA levels were measured with gene-specific primers listed below using the ABI Prism 7900HT Sequence Detection System 2.2 (Applied Biosystems). Results were normalized to GAPDH and analyzed using SDS 2.2 software.
(§2) Cells were harvested and scraped from culture dishes in ice-cold PBS. They were then centrifuged at 12000 rpm for 5 min at 4° C. The pellets were then snap frozen in liquid nitrogen or lysed in ice-cold RIPA lysis buffer (Thermo Scientific) and left on ice for 30 min. Subsequently, the lysates were centrifuged at 12000 rpm for 10 min at 4° C. The supernatants were then aspirated and placed in fresh tubes. Protein concentrations were determined using Coomaisse Blue. 50-80 μg total protein was mixed with NuPAGE™ LDS sample buffer and heated at 70° C. for 10 min. Samples were loaded into NuPAGE™ 4-12% Bis-Tris gels (precast polyacrylamide gel; Invitrogen™). Gel electrophoresis was done at 200V for 1.5 h and then blotted onto nitrocellulose membranes (Trans-Blot Turbo™ transfer pack; Bio-Rad). The membranes were blocked with 5% skimmed milk in Tris-buffered saline (TBS; 1st BASE) with 0.1% Tween-20 (Santa Cruz), and then incubated with primary antibodies overnight at 4° C. Thereafter, the membranes were incubated with a horseradish peroxidase (HRP)-conjugated secondary antibody at room temperature for one hour. Finally, the immunoreactive proteins were visualized by using an enhanced chemiluminescent (ECL) reagent (Thermo Scientific, 34075) with the Chemidoc™ Imager (Bio-Rad, 17001401).
Cell cultures were fixed in 4% paraformaldehyde and permeabilized with 0.25% Triton X-100, followed by blocking with 1% bovine serum albumin in PBST. Cells were incubated in specific primary antibodies, followed by the appropriate secondary antibodies conjugated with Alexa Fluor-488 or -594 (Molecular Probes). Cell nuclei were then stained with DAPI and then viewed and imaged with an Axio Observer D1 epifluorescence microscope with a built-in AxioCamMR3 camera (Zeiss), using the optimal filters and 100-200× magnifications.
A general note: In qPCR the cycle at which signal appears reflects the starting amount.

Data set [2] concerns SUM159. The experiment in a line: Fatty acid β-oxidation assay (rate of FAO). The data set is classed as cell-based, human. Particulars: etomoxir alone or together with bexarotene. On the procedure:
FAO rate was measured using the mitochondrial stress test on the XF96 analyzer (Seahorse Bioscience) according to manufacturer's instructions. Cells were seeded in 96well XF96 cell culture plates at a density of 9000 cells/well in complete media. Cells were then incubated with XF modified DMEM assay medium (Seahorse Bioscience) supplemented with 1 mM glutamine, 0.5 mM glucose, 1% FBS and 0.5 mM carnitine the next day for 18 h. On the day of the assay, cells were incubated with FAO assay medium (KHB: 111 mM NaCl, 4.7 mM KCl, 1.25 mM CaCl2), 2 mM MgSO4, 1.2 mM NaH2 PO4 supplemented with 2.5 mM glucose, 0.5 mM carnitine, 5 mM HEPES, adjusted to pH7.4) 45 min prior to the assay in a non-CO2 incubator. Seahorse XF Cell Mito Stress Test compounds (2 μM oligomycin, 2 μM FCCP, 2 μM rotenone). For inhibition of FAO, etomoxir (40 μM) was added 15 min prior to the assay. Just prior to starting the assay, XF Palmitate-BSA FAO substrate or BSA was added to the cells. Plate was then put into the XF96 analyzer and the XF Cell Mito Stress Test was run using the recommended protocol. Rate of FAO was calculated by the difference in maximal respiration when Palmitate-BSA FAO substrate was supplemented relative to BSA control.

In the next data set the test system is HMLE-Twist ER. Description: 4-OHT-induced EMT in HMLE-Twist ER cells. The data set is classed as cell-based, human. On the procedure: (§3) HMLE-Twist-ER cells were generated as described. For EMT-induction, 100 nM of 4-hydroxytamoxifen in ethanol was added to the culture medium every 48 h to induce Twist expression. Control cells were treated with ethanol. MCF7-Slug+Sox9 cells were generated as previously described. HMLE-Zeb1 cells were generated by infection with FUW-Zeb1 and rTTA. Doxycycline was added to the culture medium every 48 h to induce Zeb1 expression. To generate tumorigenic cells from NAMEC8, cells were infected with pWZL-Blast-Ras. MCF7, MCF7-Ras, SUM159 were maintained as previously described. All cell cultures were maintained at 37° C. with 5% CO2.
as §1
(§4) Cells were harvested and scraped from culture dishes in ice-cold PBS. They were then centrifuged at 12000 rpm for 5 min at 4° C. […] Protein concentrations were determined using Coomaisse Blue. […]

The subject of another data set is MCF7-Slug+Sox9. Description: Doxycycline-induced EMT in MCF7-Slug+Sox9 cells. The data set is classed as cell-based, human. On the procedure: as §3, §1, §4
A further data set relates to A549. The experiment in a line: TGFβ-induced EMT in lung cancer cell line. The data set is classed as cell-based, human. On the procedure: as §2
The test system of another data set is MCF7-Slug+Sox9 tumors. Description: Orthotopic MCF7-Slug+Sox9 EMT-induced metastasis model. The data set is classed as in vivo, NSG mice. Particulars: etomoxir 20 mg/kg per day i.p. plus doxycycline. Here is the method:
Orthotopic tumor transplantations of MCF7-Slug+Sox9 cells labeled with the tdTomato fluorescent protein were carried out as described previously. Briefly, 1×10^6 cells were resuspended in 30 μl of media containing 50% matrigel and injected into mammary fat pads of NSG mice. Mice were randomly divided into 3 groups (Control, DOX and Etomoxir+DOX). Mice were administered vehicle control (0.9% w/v NaCl) or etomoxir (20 mg/kg) via i.p. injections daily for 3 weeks. Doxycycline was then administered through drinking water for 2 weeks. Mice were sacrificed 10 weeks after doxycycline treatment was stopped and analyzed for lung metastases under a fluorescence microscope. The tumor sections were fixed overnight in 4% paraformaldehyde, immersed in 70% ethanol, and sent to the Advanced Molecular Pathlogy Lab, IMCB for paraffinization. For IF staining, slides were deparaffinized and rehydrated in PBS. The tissues were surrounded with a hydrophobic barrier using a barrier pen and blocked with the blocking buffer (1% bovine serum albumin; BSA, 1% horse serum and 0.2% Triton X-100 in PBS) for 1 hour. They were then washed with PBS and incubated in specific primary antibodies at 4° C. overnight. […] The fluorescence image analysis and the fluorescence overlay image were obtained with the Axio Vision Rel. […]

The conditions of data set [3]: in vivo; cited from earlier work.
Data set [4] concerns NAMEC8. Description: Cell morphology of treated NAMEC8. The data set is classed as cell-based, human. The following applies: bexarotene, TTNPB, SGC-CBP30, UNC0642, A-485 1 μM, LLY-283, GSK591 20 nM, C-IN-1 500 nM. Here is the method:
Human mammary epithelial cell lines (HMLE) were generated as described and immortalized using retroviral vectors to express the catalytic subunit of the human telomerase enzyme, hTERT and the SV-40 Large T antigen. NAMEC8 was generated as described. Briefly, HMLE cells were grown to 50% confluency, followed by differential trypsinization for 1 minute with 0.05% trypsin. Detached cells were carefully collected and re-plated at approximately 200 cells per well of a 24-well plate. Upon expansion, wells were screened for populations that were morphologically mesenchymal and can be stably propagated. Clonal and non-clonal NAMEC cell lines were generated. NAMEC8 is a non-clonal line derived from at least 200 mesenchymal cells. HMLE cells and NAMECs were maintained in MEGM (Lonza).

Data set [5] has as its system SUM159. The experiment in a line: Expression of EMT and lineage markers in SUM159. The data set is classed as cell-based, human. Here is the method:
as §1
Cells were harvested and scraped from culture dishes in ice-cold PBS. They were then centrifuged at 12000 rpm for 5 min at 4° C. The pellets were then snap frozen in liquid nitrogen or lysed in ice-cold RIPA lysis buffer (Thermo Scientific) and left on ice for 30 min. Subsequently, the lysates were centrifuged at 12000 rpm for 10 min at 4° C. The supernatants were then aspirated and placed in fresh tubes. Protein concentrations were determined using Coomaisse Blue. 50-80 μg total protein was mixed with NuPAGE™ LDS sample buffer and heated at 70° C. for 10 min. Samples were loaded into NuPAGE™ 4-12% Bis-Tris gels (precast polyacrylamide gel; Invitrogen™). Gel electrophoresis was done at 200V for 1.5 h and then blotted onto nitrocellulose membranes (Trans-Blot Turbo™ transfer pack; Bio-Rad). […]

Data set [6] deals with NAMEC8. The experiment in a line: Mammosphere assay, NAMEC8. The data set is classed as cell-based, human. Particulars: NAMEC8, pre-treated cells. On the procedure: (§5) For mammosphere culture, cells were seeded onto 96-well ultralow-adherence plates at 700 cells/well in Mammocult medium (Stem Cell Technologies) supplemented with 4 μg/ml heparin, 0.5 μg/ml hydrocortisone and 1% methylcellulose. Spheres (>100 μm) were counted at 7-10 days later.

Data set [7] concerns SUM159. Description: Mammosphere assay, SUM159. The data set is classed as cell-based, human. Here is the method:
as §5

The subject of data set [8] is NAMEC8. Description: Flow cytometry of CD44 and CD24, NAMEC8. The data set is classed as cell-based, human. On the procedure: (§6) Cells were harvested as per FACS and resuspended in 100 μl of solution containing CD24-PE and CD44-APC (BD-Biosciences) antibodies diluted in 2% FBS in PBS (1:40 dilution). Cells were stained for 45 min with vortexing every 10 min to ensure even staining. After antibody incubation, cells were washed once and resuspended in 300 μl 2% FBS in PBS. Cells were then filtered through a 40 μm strainer and analyzed on BD LSR Fortessa X-20 Cell Analyzer.
Background: A flow cytometer gives signals particle by particle.

Data set [9] concerns SUM159. Description: Flow cytometry of CD44 and CD24, SUM159. The data set is classed as cell-based, human. Here is the method:
as §6

Data set [10] has as its system H3K14ac, H3K18ac and H3K27ac in NAMEC8. Description: Immunoblot of histone acetylation marks. The data set is classed as cell-based, human. Here is the method:
as §2
Background: In western blotting, separated proteins are transferred to a membrane and probed.

In the next data set the test system is NAMEC8-Ras. Description: Tumor formation of pre-treated NAMEC8-Ras injected subcutaneously. Particulars: pre-treated cells, 11 weeks. The data set is classed as in vivo, NSG mice.

“Also recorded” adds a separate entry of the source.

As for `CCOC(=O)[C@@]1(CCCCCCOc2ccc(Cl)cc2)CO1` [etomoxir], the “MET phenotype: induction and durability after drug withdrawal” value in the data set with NAMEC8 [1] (drugs removed for at least seven days) is listed as “unable to do so”. In addition, the FAO activity result with SUM159 [2] was “completely inhibited FAO activity”. Also, the “4-OHT-induced EMT” value in the data set on HMLE-Twist ER is reported as “dramatically block this transition”. Also, in the data set on MCF7-Slug+Sox9, the “Slug+Sox9-induced EMT” value is “blocked Slug+Sox9-induced EMT”. Moreover, the “TGFβ-induced EMT” value with A549 is “blocking TGFβ-induced EMT”. The “EMT markers in primary tumors (E-cadherin, Vimentin)” value in the data set with MCF7-Slug+Sox9 tumors is recorded as “retention of the epithelial features”. Moreover, in [3], the “clinical outcome / toxicity” value is “failed clinical trials due to liver toxicity”.
As to `COc1ccc(CCc2nc3cc(-c4c(C)noc4C)ccc3n2C[C@H](C)N2CCOCC2)cc1Cl` [SGC-CBP30], the cell morphology result in the data set with NAMEC8 [4] was “obvious change in cell morphology from scattered, spindle- and fibroblastic-like cells, to tight clusters of epithelial islands; also recorded: resulted in epithelial-like morphology”. Besides, the “expression of EMT and basal/luminal markers” value in the data set with NAMEC8 [1] (transcript and protein) was “significantly increased epithelial marker E-cadherin expression, as well as downregulated several mesenchymal markers, fibronectin, ZEB1 and SLUG; also recorded: most drastic change as compared to the other compounds”. Moreover, in the data set with SUM159 [5], the “expression of EMT and lineage markers / epithelial features” value was “increasing epithelial features and decreasing stemness in SUM159”. The mammosphere formation result with NAMEC8 [6] was “significantly reduce the size and number of spheres formed”; in the data set on SUM159 [7], “significant reduction in spheres formation and spheres size”. For the same molecule, the CD44/CD24 surface expression result was “population of cells with lower CD44 expression was observed; also recorded: Population of cells with decreased CD44 expression was observed” with NAMEC8 [8]; “slight decrease in CD44 expression, with a population of cells gaining the expression of CD24; also recorded: decreased CD44 expression and higher CD24 expression” in the data set with SUM159 [9]. Further, the histone acetylation marks entry in data set [10] is given as “all the acetylation marks were decreased but to a lesser extent compared to A-485 treatment”. The “tumor formation / tumor size” value in the data set with NAMEC8-Ras is “significantly smaller tumors after 11 weeks; also recorded: significantly reduced tumor formation in mice”.

The record behind these values is patent publication US12667546B2, “Methods for manipulating cell state transitions in cancer” (AGENCY FOR SCIENCE, TECHNOLOGY AND RESEARCH, priority 2018, dated 2026).
